According to patent publication US9061060B2, “Deuterated benzylbenzene derivatives and methods of use” (Theracos Inc., priority 2008, dated 2015):

How the values were obtained:
[1] = Pharmacokinetic parameters in SD rats; format: in vivo, Sprague-Dawley rats; details: single oral 3 mg/kg in 30% PEG400, plasma; for CL/F / AUC(0-t) / Cmax / Tmax / half-life: Sprague-Dawley, rat; for AUC(0-t): read-out: AUC0-t (mean ± SD); for half-life: read-out: t1/2 (mean ± SD) (converted)
Procedure: The pharmacokinetic study of each test compound was conducted in 4 Sprague-Dawley rats following a single oral administration of 3 mg/kg of the compound. The dose was prepared by dissolving test article in appropriate volume of 30% PEG400. The plasma samples were collected from the orbital plexus at 0.083, 0.25, 0.50, 1.0, 2.0, 4.0, 6.0, 8.0, 12 and 24 hours post dose, and the plasma concentrations were determined by a developed LC-MS/MS method.

CYP2C19 = biological target: T1, CYP2C19 (Homo sapiens, UniProt P33261); assay: P450-Glo CYP screening kit, CYP2C19 inhibition; format: in vitro ADME; details: luminescence, read-out: IC50 2C19
T1 construct: purchased Promega
Source text: (§1) P450-Glo™ CYP Screening Kits for CYP1A2, CYP3A4 and CYP2C19 were purchased from Promega. […] Luminescence was quantified using a Victor 3 spectrophotometer (PerkinElmer).

CYP1A2 = biological target: T2, CYP1A2 (Homo sapiens, UniProt P05177); assay: P450-Glo CYP screening kit, CYP1A2 inhibition; format: in vitro ADME; details: luminescence, read-out: IC50 1A2
T2 construct: purchased Promega
T2 sequence (P05177 1-516): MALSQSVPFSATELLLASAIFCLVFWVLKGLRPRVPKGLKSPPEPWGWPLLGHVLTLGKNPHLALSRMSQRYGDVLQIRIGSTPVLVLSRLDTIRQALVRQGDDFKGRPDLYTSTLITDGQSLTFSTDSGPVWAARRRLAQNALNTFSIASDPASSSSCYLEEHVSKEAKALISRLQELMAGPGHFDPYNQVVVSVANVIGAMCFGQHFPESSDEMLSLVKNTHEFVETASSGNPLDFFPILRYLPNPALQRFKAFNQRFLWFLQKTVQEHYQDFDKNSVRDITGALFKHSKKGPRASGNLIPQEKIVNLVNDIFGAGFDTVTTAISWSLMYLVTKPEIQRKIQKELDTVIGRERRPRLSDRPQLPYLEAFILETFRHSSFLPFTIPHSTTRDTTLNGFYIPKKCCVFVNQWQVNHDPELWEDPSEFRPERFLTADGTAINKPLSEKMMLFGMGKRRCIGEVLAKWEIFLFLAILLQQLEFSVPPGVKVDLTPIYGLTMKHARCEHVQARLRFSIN
Source text: as §1

SD rats = assay: Urinary glucose excretion in SD rats; format: in vivo; details: 1 mg/kg oral; for Urinary Glucose Excretion in Rats, 0-4 h (mean ± SD) / Urinary Glucose Excretion in Rats, 0-24 h (mean ± SD) / Urinary Glucose Excretion in Rats, 4-24 h (mean ± SD): glucose 2 g/kg 1 h post dose
Procedure: Each test compound was dissolved in 30% PEG400 and administered orally to overnight-fasted SD rats by gavage at the dose level of 1 mg/kg. Control rats were given 30% PEG400 only. One hour post dosing, glucose solution (2 g/kg, 10 mL/kg) was administered by oral gavage. Urine was collected within metabolic cages from 0 to 4 hours, and 4 to 24 hours post-dosing for urine volume and glucose measurement. Food was removed 16 hours before dosing and then provided 4 hours after dosing. Water was supplied ad libitum. The concentration of urinary glucose was determined at 4 hours and 24 hours post-dose using a biochemistry analyzer. Results were recorded for the periods 0-4 hours, 4-24 hours and 0-24 hours, and expressed as a percentage of the urinary glucose excretion (UGE) seen with reference compound A, which was run as a positive control in all experiments.

CYP3A4 = biological target: T3, CYP3A4 (Homo sapiens, UniProt P08684); assay: P450-Glo CYP screening kit, CYP3A4 inhibition; format: in vitro ADME; details: luminescence, read-out: IC50 3A4
T3 construct: purchased Promega
Source text: as §1

[2] = Pharmacokinetic parameters in Beagle dogs; format: in vivo; details: dog, single oral 1 mg/kg in 30% PEG400, plasma; for AUC(0-t): read-out: AUC0-t (mean ± SD); for CL/F: read-out: CL/F (mean ± SD) (converted); for Cmax: read-out: Cmax (mean ± SD); for Tmax: read-out: tmax (mean ± SD)
Procedure: The pharmacokinetic study of each test compound was conducted in three Beagle dogs following a single oral administration of 1 mg/kg of the compound. The dose was prepared by dissolving test article in appropriate volume of 30% PEG400. The plasma samples were collected from the cephalic vein pre-dose and at 0.25, 0.50, 1.0, 2.0, 4.0, 6.0, 8.0, 12 and 24 hours post dose, and the plasma concentrations were determined by a developed LC-MS/MS method.

beagle dogs = assay: Urinary glucose excretion in beagle dogs; format: in vivo
Procedure: Each test compound was dissolved in 10% PEG400 and administered orally to overnight-fasted beagle dogs by gavage at the dose level of 0.03 mg/kg. Control dogs were given 10% PEG400 only. One hour post dosing, glucose solution (2 g/kg, 5 mL/kg) was administered by oral gavage. Urine was collected within metabolic cages from 0 to 8 hours, and 8 to 24 hours post-dosing for urine volume and glucose measurement. Food was removed 16 hours before dosing and then provided 3 hours after dosing. Water was supplied ad libitum. The concentration of urinary glucose was determined at 8 hours and 24 hours post-dose using a biochemistry analyzer.

[3] = separate experiment (Table 4A), 0-24 h
[4] = 0.03 mg/kg oral, glucose 2 g/kg 1 h post dose, 0-8 h (Table 4)
[5] = 0.03 mg/kg oral, glucose 2 g/kg 1 h post dose, 0-24 h (Table 4)
[6] = 0.03 mg/kg oral, glucose 2 g/kg 1 h post dose, 8-24 h (Table 4)

T1 sequence (P33261 whole entry): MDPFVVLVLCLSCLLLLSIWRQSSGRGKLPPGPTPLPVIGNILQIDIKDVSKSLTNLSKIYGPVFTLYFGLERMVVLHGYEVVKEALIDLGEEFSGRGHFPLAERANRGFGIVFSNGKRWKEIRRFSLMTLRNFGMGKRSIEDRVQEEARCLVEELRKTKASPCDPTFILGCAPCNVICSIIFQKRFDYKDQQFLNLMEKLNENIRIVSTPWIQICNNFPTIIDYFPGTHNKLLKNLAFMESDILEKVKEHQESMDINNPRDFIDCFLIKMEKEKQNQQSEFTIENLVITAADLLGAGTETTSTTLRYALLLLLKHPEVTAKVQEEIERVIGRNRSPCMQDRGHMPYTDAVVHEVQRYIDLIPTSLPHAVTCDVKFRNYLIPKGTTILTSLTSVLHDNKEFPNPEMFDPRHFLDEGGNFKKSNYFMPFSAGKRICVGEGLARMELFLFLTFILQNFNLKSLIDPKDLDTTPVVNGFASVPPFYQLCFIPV
T3 sequence (P08684 whole entry): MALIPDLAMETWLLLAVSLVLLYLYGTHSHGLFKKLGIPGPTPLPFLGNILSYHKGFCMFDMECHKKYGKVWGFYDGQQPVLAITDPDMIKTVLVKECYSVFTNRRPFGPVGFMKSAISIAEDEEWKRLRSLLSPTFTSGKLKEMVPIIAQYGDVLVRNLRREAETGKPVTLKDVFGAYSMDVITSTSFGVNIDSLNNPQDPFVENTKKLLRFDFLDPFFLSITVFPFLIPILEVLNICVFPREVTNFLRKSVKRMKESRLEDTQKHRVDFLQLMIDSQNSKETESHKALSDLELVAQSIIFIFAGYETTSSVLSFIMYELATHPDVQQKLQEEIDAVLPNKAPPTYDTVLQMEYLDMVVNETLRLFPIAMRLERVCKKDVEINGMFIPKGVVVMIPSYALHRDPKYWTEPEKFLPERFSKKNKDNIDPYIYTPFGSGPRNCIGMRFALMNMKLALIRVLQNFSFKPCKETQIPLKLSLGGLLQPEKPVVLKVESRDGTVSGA

Compound: [2H]C([2H])(C)Oc1ccc(Cc2cc([C@@H]3O[C@H](CO)[C@@H](O)[C@H](O)[C@H]3O)ccc2Cl)cc1 [24a, (2S,3R,4R,5S,6R)-2-(4-chloro-3-(4-(ethoxy-1,1′-d)benzyl)phenyl)-6-(hydroxymethyl)tetrahydro-2H-pyran-3,4,5-triol]
- CL/F [1]: 2.4 mL/min/kg
- AUC(0-t) [1]: 20300 ± 1610 ng·h/mL
- Cmax (mean ± SD) [1]: 2923 ± 393 ng/mL
- t1/2 (mean ± SD) [1]: 4.56 ± 0.64 h
- tmax (mean ± SD) [1]: 0.88 ± 0.75 h

Compound: [2H]C([2H])([2H])Oc1ccc(Cc2cc([C@@H]3O[C@H](CO)[C@@H](O)[C@H](O)[C@H]3O)ccc2Cl)cc1 [24d, (2S,3R,4R,5S,6R)-2-(4-chloro-3-(4-(methoxy-d3)benzyl)phenyl)-6-(hydroxymethyl)tetrahydro-2H-pyran-3,4,5-triol]
- IC50 (CYP2C19): 120 µM
- IC50 (CYP1A2): > 1000 µM
- Urinary Glucose Excretion in Rats, 0-4 h, % relative to Ref A (SD rats): 131%
- Urinary Glucose Excretion in Rats, 0-24 h, % relative to Ref A (SD rats): 92%
- Urinary Glucose Excretion in Rats, 4-24 h, % relative to Ref A (SD rats): 89%
- Urinary Glucose Excretion in Rats, 0-4 h (mean ± SD) (SD rats): 251 ± 44 mg
- Urinary Glucose Excretion in Rats, 0-24 h (mean ± SD) (SD rats): 2234 ± 199 mg
- Urinary Glucose Excretion in Rats, 4-24 h (mean ± SD) (SD rats): 1983 ± 167 mg
- IC50 (CYP3A4): ~1000 µM
- CL/F [1]: 7.18 mL/min/kg
- AUC(0-t) [1]: 6680 ± 350 ng·h/mL
- Cmax (mean ± SD) [1]: 1494 ± 428 ng/mL
- t1/2 (mean ± SD) [1]: 6.34 ± 2.79 h
- tmax (mean ± SD) [1]: 1.19 ± 0.94 h

Compound: [2H]C([2H])([2H])Oc1ccc(Cc2cc([C@]3([2H])O[C@H](CO)[C@@H](O)[C@H](O)[C@H]3O)ccc2Cl)cc1 [24e, (2S,3R,4R,5S,6R)-2-(4-chloro-3-(4-(methoxy-d3)benzyl)phenyl)-6-(hydroxymethyl)tetrahydro-2H-pyran-2-d-3,4,5-triol]
- Urinary Glucose Excretion in Rats, 0-4 h, % relative to Ref A (SD rats): 162%
- Urinary Glucose Excretion in Rats, 0-24 h, % relative to Ref A (SD rats): 101%
- Urinary Glucose Excretion in Rats, 4-24 h, % relative to Ref A (SD rats): 97%
- Urinary Glucose Excretion in Rats, 0-4 h (mean ± SD) (SD rats): 236 ± 48 mg
- Urinary Glucose Excretion in Rats, 0-24 h (mean ± SD) (SD rats): 2525 ± 266 mg
- Urinary Glucose Excretion in Rats, 4-24 h (mean ± SD) (SD rats): 2288 ± 287 mg

Compound: OC[C@H]1O[C@@H](c2ccc(Cl)c(Cc3ccc(C4CC4)cc3)c2)[C@H](O)[C@@H](O)[C@@H]1O [Ref C, (2S,3R,4R,5S,6R)-2-(4-chloro-3-(4-cyclopropylbenzyl)phenyl)-6-(hydroxymethyl)tetrahydro-2H-pyran-3,4,5-triol, reference compound]
- CL/F [1]: 5.2 mL/min/kg
- Cmax [1]: 1050 ± 230 ng/mL
- Tmax [1]: 3 ± 1.15 h
- AUC(0-t) [1]: 9770 ± 2180 ng·h/mL
- half-life [1]: 4.28 ± 0.8 h

Compound: OC[C@H]1O[C@@H](c2ccc(Cl)c(Cc3ccc(OCCOCC(F)F)cc3)c2)[C@H](O)[C@@H](O)[C@@H]1O [Ref F, (2S,3R,4R,5S,6R)-2-(4-chloro-3-(4-(2-(2,2-difluoroethoxy)ethoxy)benzyl)phenyl)-6-(hydroxymethyl)tetrahydro-2H-pyran-3,4,5-triol, reference compound]
- AUC(0-t) [2]: 4920 ± 484 ng·h/mL
- CL/F [2]: 3.17 mL/min/kg
- Cmax [2]: 889 ± 65.4 ng/mL
- Tmax [2]: 0.4 ± 0.1 h
- Urinary Glucose Excretion in Dogs, 0-8 h (mean ± SD) (beagle dogs; separate experiment (Table 4A), 0-8 h): 1927 ± 307 mg
- Urinary Glucose Excretion in Dogs, 0-24 h (mean ± SD) (beagle dogs; [3]): 13438 ± 5237 mg
- Urinary Glucose Excretion in Dogs, 8-24 h (mean ± SD) (beagle dogs; separate experiment (Table 4A), 8-24 h): 11511 ± 5327 mg

Compound: OC[C@H]1O[C@@H](c2ccc(Cl)c(Cc3ccc(OCCOC4CC4)cc3)c2)[C@H](O)[C@@H](O)[C@@H]1O [Ref G, (2S,3R,4R,5S,6R)-2-(4-chloro-3-(4-(2-cyclopropoxyethoxy)benzyl)phenyl)-6-(hydroxymethyl)tetrahydro-2H-pyran-3,4,5-triol, reference compound]
- CL/F [1]: 11.8 mL/min/kg
- Cmax [1]: 594 ± 85.8 ng/mL
- Tmax [1]: 1.88 ± 1.55 h
- AUC(0-t) [1]: 4240 ± 405 ng·h/mL
- half-life [1]: 3.39 ± 0.68 h

Compound: [2H][C@@]1(c2ccc(Cl)c(Cc3ccc(OCC)cc3)c2)O[C@H](CO)[C@@H](O)[C@H](O)[C@H]1O [compound 5, (2S,3R,4R,5S,6R)-2-(4-chloro-3-(4-ethoxybenzyl)phenyl)-6-(hydroxymethyl)tetrahydro-2H-pyran-2-d-3,4,5-triol]
- IC50 (CYP2C19): 104 µM
- IC50 (CYP1A2): 500 to 1000 µM
- Urinary Glucose Excretion in Rats, 0-24 h (mean ± SD) (SD rats): 2650 ± 385 mg
- Urinary Glucose Excretion in Rats, 4-24 h (mean ± SD) (SD rats): 2457 ± 369 mg
- IC50 (CYP3A4): 500 to 1000 µM
- Urinary Glucose Excretion in Dogs, 0-8 h (mean ± SD) (beagle dogs; [4]): 3765 ± 808 mg
- Urinary Glucose Excretion in Dogs, 0-24 h (mean ± SD) (beagle dogs; [5]): 12676 ± 2150 mg
- Urinary Glucose Excretion in Dogs, 8-24 h (mean ± SD) (beagle dogs; [6]): 8910 ± 1700 mg

Compound: [2H]C([2H])(c1ccc(OC([2H])([2H])C([2H])([2H])[2H])cc1)c1cc([C@@H]2O[C@H](CO)[C@@H](O)[C@H](O)[C@H]2O)ccc1Cl [compound 16, (2S,3R,4R,5S,6R)-2-(4-chloro-3-((4-(ethoxy-d5)phenyl)methyl-d2)phenyl)-6-(hydroxymethyl)tetrahydro-2H-pyran-3,4,5-triol]
- Urinary Glucose Excretion in Dogs, 0-8 h (mean ± SD) (beagle dogs; [4]): 4362 ± 818 mg
- Urinary Glucose Excretion in Dogs, 0-24 h (mean ± SD) (beagle dogs; [5]): 15357 ± 2514 mg
- Urinary Glucose Excretion in Dogs, 8-24 h (mean ± SD) (beagle dogs; [6]): 10995 ± 1987 mg
- CL/F [1]: 2.3 mL/min/kg
- AUC(0-t) [1]: 21000 ± 4370 ng·h/mL
- Cmax (mean ± SD) [1]: 2683 ± 471 ng/mL
- t1/2 (mean ± SD) [1]: 5.70 ± 0.63 h
- tmax (mean ± SD) [1]: 1.00 ± 0.71 h

Compound: [2H]C([2H])(c1ccc(C2CC2)cc1)c1cc([C@@H]2O[C@H](CO)[C@@H](O)[C@H](O)[C@H]2O)ccc1Cl [compound 54, (2S,3R,4R,5S,6R)-2-(4-chloro-3-((4-cyclopropylphenyl)methyl-d2)phenyl)-6-(hydroxymethyl)tetrahydro-2H-pyran-3,4,5-triol]
- CL/F [1]: 4.4 mL/min/kg
- Cmax [1]: 1270 ± 138 ng/mL
- Tmax [1]: 2 h
- AUC(0-t) [1]: 10600 ± 1600 ng·h/mL
- half-life [1]: 6.08 ± 1.92 h

Compound: [2H]C([2H])(c1ccc(OCCOCC(F)F)cc1)c1cc([C@@H]2O[C@H](CO)[C@@H](O)[C@H](O)[C@H]2O)ccc1Cl [compound 87, (2S,3R,4R,5S,6R)-2-(4-chloro-3-((4-(2-(2,2-difluoroethoxy)ethoxy)phenyl)methyl-d2)phenyl)-6-(hydroxymethyl)-tetrahydro-2H-pyran-3,4,5-triol]
- AUC(0-t) [2]: 8880 ± 1440 ng·h/mL
- CL/F [2]: 1.85 mL/min/kg
- Cmax [2]: 1580 ± 282 ng/mL
- Tmax [2]: 0.6 ± 0.4 h
- Urinary Glucose Excretion in Dogs, 0-24 h (mean ± SD) (beagle dogs; [3]): 16858 ± 674 mg

Compound: [2H]C([2H])(COc1ccc(Cc2cc([C@@H]3O[C@H](CO)[C@@H](O)[C@H](O)[C@H]3O)ccc2Cl)cc1)OC1CC1 [compound 95, (2S,3R,4R,5S,6R)-2-(4-chloro-3-(4-(2-cyclopropoxy(ethoxy-2,2-d2))benzyl)phenyl)-6-(hydroxymethyl)tetrahydro-2H-pyran-3,4,5-triol]
- CL/F [1]: 9.2 mL/min/kg
- Cmax [1]: 710 ± 76.4 ng/mL
- Tmax [1]: 2.13 ± 1.44 h
- AUC(0-t) [1]: 5240 ± 328 ng·h/mL
- half-life [1]: 4.83 ± 1.42 h
